The values below come from patent US8722663B2, “Di-substituted pyridine derivatives as anticancers” (Otsuka Pharmaceutical Co., Ltd., priority 2010, dated 2014).

In data set [1] the test system is human breast cancer cell line (MDA-MB-468). The data set can be described thus: Growth inhibition of MDA-MB-468 cells, sulforhodamine B method. It counts as cell-based. The conditions noted are these: 120 h, 5 days with test compound. The procedure: Growth inhibition of a human breast cancer cell line (MDA-MB-468) was determined by the sulforhodamine B method based on the method of Skehan P. et al. (J Natl Cancer Inst. 1990 Jul. 4; 82(13): 1107-12). In the study, MDA-MB-468 cells were seeded on DMEM medium containing 10% fetal bovine serum in a 96-well microplate. After 24-h incubation at 37° C. in the presence of 5% carbon dioxide, the test compound was added and the cells were incubated for another 5 days. After incubation, a trichloroacetic acid solution was added to yield the final concentration of 10% and the cells were left to stand at 4° C. for 1 hour to fix. Then, the cells were washed with water to remove the medium and trichloroacetic acid and dried in the air. The dried cells were stored at 4° C. until they were stained with sulforhodamine B. To each well, 1% acetic acid solution containing 0.4% sulforhodamine B was added and left to stand for 20 to 30 minutes at room temperature. After discarding the supernatant, each well was washed with 1% acetic acid solution, and 10 mM Tris([…]) solution was added while stirring to elute the dye taken into the cells. Then, the optical density was determined at the measurement wavelength of 492 nm and the reference wavelength of 690 nm, and the difference was calculated. The cell growth activity in each well was defined as the value determined by subtracting the OD in the control well not containing cells (the difference in absorbance between 492 nm and 690 nm) from that in the test well.
The 50% inhibitory concentration (IC50 (nM)) of the test compound was determined by comparing the cell growth activity in the well containing the test compound with that of the control not containing the test compound.

Some results are limits rather than exact numbers.

Regarding `Cc1cc(/C=C/C(=O)N2CCN(Cc3ccc(CCOc4ccc(F)cc4)cc3)CC2)cc(Cl)c1Oc1ccc(OCc2cccc(Cl)c2F)cn1.Cl` [Example 485, (E)-3-[3-Chloro-4-({5-[(3-chloro-2-fluorobenzyl)oxy]pyridin-2-yl}oxy)-5-methylphenyl]-1-(4-{4-[2-(4-fluorophenoxy)ethyl]benzyl}piperazin-1-yl)prop-2-en-1-one hydrochloride], the melting point (commonly the temperature of the solid-liquid transition) lay in the range of 228.9 to 229.4 °C. In addition, the IC50 (commonly the concentration that gives 50% inhibition) in data set [1] was below 10 nM.
In turn, `Cc1cc(/C=C/C(=O)N2CCN(Cc3ccc(CCOc4ccc(Cl)cc4)c(F)c3)CC2)cc(C)c1Oc1ccc(OCc2ccc(C#N)cc2)cn1.Cl` [Example 614, 4-{[(6-{4-[(E)-3-(4-{4-[2-(4-Chlorophenoxy)ethyl]-3-fluorobenzyl}piperazin-1-yl)-3-oxoprop-1-en-1-yl]-2,6-dimethylphenoxy}pyridin-3-yl)oxy]methyl}benzonitrile hydrochloride] showed a melting point of 240.5 to 243.5 °C. For the same compound, the IC50 in data set [1] was below 10 nM.
For `Cc1cc(/C=C/C(=O)N2CCN(Cc3ccc(CCCOc4ccc(F)cc4)cc3)CC2)cc(Cl)c1Oc1ccc(OCc2ccc(C#N)cc2)cn1.Cl` [Example 618, 4-{[(6-{2-Chloro-4-[(E)-3-(4-{4-[3-(4-fluorophenoxy)propyl]benzyl}piperazin-1-yl)-3-oxoprop-1-en-1-yl]-6-methylphenoxy}pyridin-3-yl)oxy]methyl}benzonitrile hydrochloride], in that order: 166.2 to 166.7 °C and below 10 nM.
For `Cc1cc(/C=C/C(=O)N2CCN(Cc3ccc(COc4ccc(OC(C)C)cc4)c(F)c3)CC2)cc(Cl)c1Oc1ccc(OCc2ccc(C#N)cc2)cn1.Cl` [Example 640, 4-({[6-(2-Chloro-4-{(E)-3-[4-(3-fluoro-4-{[4-(propan-2-yloxy)phenoxy]methyl}benzyl)-piperazin-1-yl]-3-oxoprop-1-en-1-yl}-6-methylphenoxy)pyridin-3-yl]oxy}methyl)benzonitrile hydrochloride], in that order: 141.8 to 141.9 °C and below 10 nM.
Taken in the same sequence, the figures for `Cc1cc(/C=C/C(=O)N2CCN(Cc3ccc(COc4ccc(F)cc4)c(F)c3)CC2)cc(Cl)c1Oc1ccc(OCc2ccc(C#N)cc2)cn1.Cl` [Example 641, 4-{[(6-{2-Chloro-4-[(E)-3-(4-{3-fluoro-4-[(4-fluorophenoxy)methyl]benzyl}piperazin-1-yl)-3-oxoprop-1-en-1-yl]-6-methylphenoxy}pyridin-3-yl)oxy]methyl}benzonitrile hydrochloride] were 218 to 220.5 °C and below 10 nM.
`Br.C/C(C(=O)N1CCN(Cc2ccc(CCOc3ccc(C)cc3)cc2)CC1)=C(/C)c1cc(C)c(Oc2ccc(OCc3ccc(C)cc3)cn2)c(Cl)c1` [Example 706, (E)-3-[3-Chloro-5-methyl-4-({5-[(4-methylbenzyl)oxy]pyridin-2-yl}oxy)phenyl]-2-methyl-1-(4-{4-[2-(4-methylphenoxy)ethyl]benzyl}piperazin-1-yl)but-2-en-1-one hydrobromide] had a melting point of 205.5 to 206.5 °C. This compound also had an IC50 in data set [1] below 10 nM.
For `Br.C/C(=C\C(=O)N1CCN(Cc2ccc(CCOc3ccc(C)cc3)cc2)CC1)c1cc(C)c(Oc2ccc(OCc3ccc(C)cc3)cn2)c(Cl)c1` [Example 708, (E)-3-[3-Chloro-5-methyl-4-({5-[(4-methylbenzyl)oxy]pyridin-2-yl}oxy)phenyl]-1-(4-{4-[2-(4-methylphenoxy)ethyl]benzyl}piperazin-1-yl)but-2-en-1-one hydrobromide], in that order: 156.5 to 158.2 °C and below 10 nM.
Taken in the same sequence, the figures for `C/C(=C\C(=O)N1CCN(Cc2ccc(CCOc3ccc(F)cc3)cc2)CC1)c1cc(C)c(Oc2ccc(OCc3ccc(C)cc3)cn2)c(Cl)c1.O=C(O)C(=O)O` [Example 746, (E)-3-[3-Chloro-5-methyl-4-({5-[(4-methylbenzyl)oxy]pyridin-2-yl}oxy)phenyl]-1-(4-{4-[2-(4-fluorophenoxy)ethyl]benzyl}piperazin-1-yl)but-2-en-1-one ethanedioate] were 211.3 to 211.7 °C and below 10 nM.
